Source: patent US20060287316A1, “METHOD FOR IMPROVING PHARMACOKINETICS OF PROTEASE INHIBITORS AND PROTEASE INHIBITOR PRECURSORS” (priority 2005, published 2006)

Columns and labels:
[1] = Plasma concentration after single oral dose in rats (in vivo cleavage of the phosphate group); design: species or system male Sprague-Dawley rats; conditions: 50 mg/Kg po, vehicle Mix, 3 rats
Description: To assess the extent of in vivo cleavage of the phosphate group from the putative compounds, PL-100, PL-462 (based on PL-100), PL-337 and PL-515 (based on PL-337) compounds were administered po (per os, (i.e., by mouth)) (50 mg/kg) to male Sprague-Dawley rats and their plasma concentration measured at different time intervals post-administration.
All test articles (PL-100, PL-462, PL-337 and PL-515) were prepared in different vehicle at the final concentration of 25 mg/mL. The vehicle composition is as follows: (1) 20% ethanol; 50% propylene glycol; 0.05% w/v Tween 20 and water (Mix); (2) PBS buffer (PBS).
Test articles were administered to male Sprague-Dawley rats at a single oral dose of 50 mg/kg. Each article was tested in three rats. Blood samples (0.2-0.3 mL) were collected at the post-dose time of 10, 20, 40, 60, 120, 180 and 360 minutes. The harvested blood was centrifuged to isolate plasma. The resulting plasma was separated and stored at −70° C.
Plasma samples together with standards and quality control samples were treated to precipitate proteins, then analyzed by HPLC-MS, for the presence of PL-462, PL-100, PL-515 and PL-337.

CYP3A4/5 = experiment: Inhibition of CYP450 sub-families; format: biochemical; conditions: FIG. 10

Compound: COC(=O)N[C@H](C(=O)NCCCC[C@@H](CO)N(CC(C)C)S(=O)(=O)c1ccc(N)cc1)C(c1ccccc1)c1ccccc1 [PL-100, (1S,5S)-(1-{5-[(4-amino-benzenesulfonyl)-isobutyl-amino]-6-hydroxy-hexylcarbamoyl}-2,2-diphenyl-ethyl)-carbamic acid methyl ester]
- AUC [1]: 0.675 ± 0.171 μg/hr * ml
- Cmax [1]: 498 ± 203 nM
- Tmax [1]: 40 ± 16 min
- Inhibition of CYP3A4/5 (CYP3A4/5): inhibits CYP3A4/5
